Results reported in ChEMBL document CHEMBL2007661, “Compounds: GSK PKIS; Assays: UNC Frye lab” (2012).
Where “and” joins values, the source holds several entries; their conditions need not be identical. Identical values can stand only once.

Experiments:
[1] = target: T1, Tyrosine-protein kinase Mer (Homo sapiens) (UniProt Q12866); conditions: at 10 µM
T1 sequence (whole entry): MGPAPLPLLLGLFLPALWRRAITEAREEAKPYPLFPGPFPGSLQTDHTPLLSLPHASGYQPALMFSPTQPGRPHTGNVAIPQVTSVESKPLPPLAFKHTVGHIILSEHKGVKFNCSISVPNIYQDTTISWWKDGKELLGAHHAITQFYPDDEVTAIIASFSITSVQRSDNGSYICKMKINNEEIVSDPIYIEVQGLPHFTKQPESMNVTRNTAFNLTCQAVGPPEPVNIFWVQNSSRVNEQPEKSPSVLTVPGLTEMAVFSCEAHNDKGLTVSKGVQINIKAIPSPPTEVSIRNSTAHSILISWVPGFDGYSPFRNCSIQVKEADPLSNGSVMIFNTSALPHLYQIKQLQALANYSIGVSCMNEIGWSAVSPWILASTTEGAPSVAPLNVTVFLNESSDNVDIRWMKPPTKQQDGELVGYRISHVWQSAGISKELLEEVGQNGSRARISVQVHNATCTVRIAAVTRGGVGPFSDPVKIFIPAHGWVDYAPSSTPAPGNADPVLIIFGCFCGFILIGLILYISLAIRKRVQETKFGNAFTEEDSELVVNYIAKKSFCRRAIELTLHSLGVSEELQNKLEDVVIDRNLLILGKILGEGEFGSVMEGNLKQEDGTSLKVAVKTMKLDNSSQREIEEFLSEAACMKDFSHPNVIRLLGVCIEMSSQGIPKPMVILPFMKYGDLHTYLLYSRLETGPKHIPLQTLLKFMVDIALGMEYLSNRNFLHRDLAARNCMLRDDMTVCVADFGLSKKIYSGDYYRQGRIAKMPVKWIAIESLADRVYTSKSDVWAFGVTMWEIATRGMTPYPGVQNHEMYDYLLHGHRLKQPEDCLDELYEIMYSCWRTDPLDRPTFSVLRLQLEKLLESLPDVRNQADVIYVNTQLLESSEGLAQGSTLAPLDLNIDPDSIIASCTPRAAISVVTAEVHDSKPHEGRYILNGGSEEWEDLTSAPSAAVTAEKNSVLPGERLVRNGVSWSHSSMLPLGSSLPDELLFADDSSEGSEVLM

[2] = target: T2, Inhibitor of nuclear factor kappa-B kinase subunit alpha (Homo sapiens) (UniProt O15111); conditions: at 1 µM
T2 sequence (whole entry): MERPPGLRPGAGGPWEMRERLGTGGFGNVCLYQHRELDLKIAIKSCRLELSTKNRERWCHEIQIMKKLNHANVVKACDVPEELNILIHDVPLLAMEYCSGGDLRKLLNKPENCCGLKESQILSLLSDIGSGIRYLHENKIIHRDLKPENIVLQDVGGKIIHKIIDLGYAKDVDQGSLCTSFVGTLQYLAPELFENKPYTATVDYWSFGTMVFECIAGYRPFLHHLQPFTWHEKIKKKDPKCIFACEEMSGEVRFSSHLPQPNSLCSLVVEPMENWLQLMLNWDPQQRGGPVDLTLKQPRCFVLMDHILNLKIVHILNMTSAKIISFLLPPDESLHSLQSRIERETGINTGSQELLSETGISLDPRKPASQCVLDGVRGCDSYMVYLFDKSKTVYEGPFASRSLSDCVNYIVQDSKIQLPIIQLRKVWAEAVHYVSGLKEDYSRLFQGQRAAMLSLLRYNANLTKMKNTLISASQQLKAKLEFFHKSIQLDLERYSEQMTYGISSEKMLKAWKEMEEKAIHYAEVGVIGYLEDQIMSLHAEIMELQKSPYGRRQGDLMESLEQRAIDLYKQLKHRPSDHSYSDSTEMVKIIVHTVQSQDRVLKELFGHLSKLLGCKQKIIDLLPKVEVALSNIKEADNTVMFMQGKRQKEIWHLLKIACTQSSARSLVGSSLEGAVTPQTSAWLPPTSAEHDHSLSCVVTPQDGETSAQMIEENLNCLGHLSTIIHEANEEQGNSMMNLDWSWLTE

[3] = target: T3, Inhibitor of nuclear factor kappa-B kinase subunit epsilon (Homo sapiens) (UniProt Q14164); conditions: at 1 µM
T3 sequence (whole entry): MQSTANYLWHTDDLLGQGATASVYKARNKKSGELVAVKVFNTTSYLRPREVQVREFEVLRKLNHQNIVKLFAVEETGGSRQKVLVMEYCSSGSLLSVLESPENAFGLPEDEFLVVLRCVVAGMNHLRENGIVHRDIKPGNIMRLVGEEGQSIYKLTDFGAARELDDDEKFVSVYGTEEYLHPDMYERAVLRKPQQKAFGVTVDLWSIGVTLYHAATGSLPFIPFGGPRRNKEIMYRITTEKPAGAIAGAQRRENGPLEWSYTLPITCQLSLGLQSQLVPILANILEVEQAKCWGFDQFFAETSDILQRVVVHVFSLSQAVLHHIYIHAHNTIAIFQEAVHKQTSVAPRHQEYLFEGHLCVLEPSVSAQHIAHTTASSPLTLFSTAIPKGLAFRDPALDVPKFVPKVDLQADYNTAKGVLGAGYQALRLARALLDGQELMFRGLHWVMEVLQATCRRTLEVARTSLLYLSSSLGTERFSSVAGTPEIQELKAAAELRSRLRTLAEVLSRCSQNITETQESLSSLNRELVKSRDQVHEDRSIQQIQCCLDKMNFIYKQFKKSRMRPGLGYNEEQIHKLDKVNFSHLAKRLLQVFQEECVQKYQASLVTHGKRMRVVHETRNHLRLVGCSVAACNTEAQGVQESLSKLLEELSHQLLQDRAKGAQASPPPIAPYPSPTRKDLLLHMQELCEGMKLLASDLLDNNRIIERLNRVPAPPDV

| SMILES | inhibition [1] | inhibition [2] | inhibition [3] |
| --- | --- | --- | --- |
| NS(=O)(=O)c1cccc(N/C=C2\C(=O)Nc3ccccc32)c1 | 0% | 1% and 2% | 22% and 26% |
| COc1ccc2cc(-c3c(-c4ccncc4)nc(-c4ccc(S(C)(=O)=O)cc4C)n3C)ccc2c1 | 0% | 5% | 1% and 2% |
| CS(=O)(=O)CCNCc1cc(-c2cc3c(Nc4ccc(OCc5cccc(F)c5)c(Cl)c4)ncnc3s2)cs1 | -5% | 16% and 15% | 0% and 2% |
| CNC(=O)Oc1cc(C)c(/C=C/c2cncc(C(=O)NC)c2)c(C)c1 | 48% | -3% and 5% | -1% |
| NS(=O)(=O)c1ccc(NC=C2C(=O)Nc3ccc4ncsc4c32)cc1 | -5% | 2% and 6% | 85% |
| C/C(Nc1ccc(S(N)(=O)=O)cc1)=C1/C(=O)Nc2ccccc21 | -2% | 2% and 1% | 5% and 6% |
| COc1cc2ncn(-c3cc(OCc4cccs4)c(C(N)=O)s3)c2cc1OC | 4% | 5% and 3% | 1% |
| CC1=C(C(=O)Nc2ccc3[nH]ncc3c2)C(c2ccc(F)cc2)NC(=O)N1 (stereo unspecified) | -2% | 4% and 5% | 2% |
| COc1ccc(CNC(=O)c2ccc(-c3cc(-c4nnc(C)o4)ccc3C)cc2)cc1 | 3% | 3% and 7% | -3% |
| CN1CCN(CCCNc2nc3ccc(Oc4ccc(NC(=O)Nc5cc(C(F)(F)F)ccc5F)cc4)cc3[nH]2)CC1 | -1% | 4% | -2% |
| Fc1ccc(-c2ncn(C3CCNCC3)c2-c2ccnc(Oc3ccc(F)c(F)c3)n2)cc1 | 67% | 18% and 0% | -3% and -1% |
| CN(C)CCOc1ccc(-c2cc(-c3ccc4c(c3)CCC4=NO)c(-c3ccncc3)o2)cc1 | 1% | 0% | 3% and 4% |
